From patent US4794079A, “Determination of hydrogen peroxide using fluorogenic dihydroquinolone and dihydrocoumarin indicators” (Miles Inc., priority 1985, dated 1988)

Biological target: T1, horseradish peroxidase (Armoracia rusticana, UniProt P00433)
T1 sequence (P00433 31-353): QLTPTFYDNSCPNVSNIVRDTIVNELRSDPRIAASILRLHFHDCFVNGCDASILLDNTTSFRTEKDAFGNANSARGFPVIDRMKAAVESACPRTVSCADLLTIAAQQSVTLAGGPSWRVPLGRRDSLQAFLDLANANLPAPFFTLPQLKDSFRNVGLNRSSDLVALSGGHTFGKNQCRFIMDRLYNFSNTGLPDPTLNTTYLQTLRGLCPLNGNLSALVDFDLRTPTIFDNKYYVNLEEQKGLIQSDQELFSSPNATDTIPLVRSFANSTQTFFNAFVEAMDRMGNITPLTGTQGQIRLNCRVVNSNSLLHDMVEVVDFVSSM
Test: Detection of hydrogen peroxide: fluorescence of indicator compounds after adding horseradish peroxidase and hydrogen peroxide
Format: biochemical
Details: 1.0 μM compound; for Relative Fluorescence of Indicator Compounds, Fluorescence Units, 0 secs: sodium phosphate buffer pH 7.0 or 7.5, 37° C., nM of fluorescent standard 7-hydroxy-3-(N-ethylcarboxamido)coumarin giving the same light output
Method: A 1.0 μM, pH 7.0 or 7.5, sodium phosphate buffer solution of the dihydroquinolones and dihydrocoumarins listed in the Table below were prepared by successive dilutions with the buffer of an ethanol or DMF-ethanol solution of the appropriate compound. The solution was warmed in a 37° C. bath, then a 40 microliter (μL) of 1 mg/mL horseradish peroxidase enzyme was added in one portion. The contents of the cuvette were mixed and the fluorescence was monitored for at least 50 seconds (the quartz cell and its contents were held at a constant 37° C.). A quantity of hydrogen peroxide diluted in cold water and stored at 0° for less than eight hours was then added in an amount suitable for the desired ratio of dihydroquinolone to peroxide. The fluorescence was then monitored over a 600 second time span. Fluorescent values for compounds (5), (6), (7), (11), (16), and (17) were reported in units of concentration (nM) of the flourescent standard 7 -hydroxy-3-(N-ethylcarboxamido) coumarin (U.S. Pat. No. 4,273,715) which would be required to achieve the same fluorescence light output as the subject of study. Compound (8) is reported in photons/second. All slit widths were set at 2 nm (nanometers).
Fluorescence was measured in quartz cuvettes on an SLM 8000 spectrofluorometer (SLM Instruments, Inc. Urbana, Ill.). A Hewlett-Packard8915A computer was used to process spectra.

[1] = 25 secs, pH 7.0 or 7.5, 37° C., nM of fluorescent standard equivalent
[2] = 100 secs, pH 7.0 or 7.5, 37° C., nM of fluorescent standard equivalent
[3] = 200 secs, pH 7.0 or 7.5, 37° C., nM of fluorescent standard equivalent
[4] = 600 secs, pH 7.0 or 7.5, 37° C., nM of fluorescent standard equivalent

Compound | Relative Fluorescence of Indicator Compounds, Fluorescence Units, 0 secs (0 secs) | Relative Fluorescence of Indicator Compounds, Fluorescence Units, 25 secs [1] | Relative Fluorescence of Indicator Compounds, Fluorescence Units, 100 secs [2] | Relative Fluorescence of Indicator Compounds, Fluorescence Units, 200 secs [3] | Relative Fluorescence of Indicator Compounds, Fluorescence Units, 600 secs [4] | Fluorescence Units, 0 secs (0 secs, pH 7.0 or 7.5, 37° C., excitation 400 nm, emission 450 nm) | Fluorescence Units, 25 secs (25 secs, pH 7.0 or 7.5, 37° C., excitation 400 nm, emission 450 nm) | Fluorescence Units, 50 secs (50 secs, pH 7.0 or 7.5, 37° C., excitation 400 nm, emission 450 nm) | Fluorescence Units, 100 secs (100 secs, pH 7.0 or 7.5, 37° C., excitation 400 nm, emission 450 nm) | Fluorescence Units, 200 secs (200 secs, pH 7.0 or 7.5, 37° C., excitation 400 nm, emission 450 nm) | Fluorescence Units, 600 secs (600 secs, pH 7.0 or 7.5, 37° C., excitation 400 nm, emission 450 nm) | Relative Fluorescence of Indicator Compounds, Fluorescence Units, 50 secs (50 secs, pH 7.0 or 7.5, 37° C., nM of fluorescent standard equivalent)
CN(C)c1ccc2c(c1)NC(=O)C(C(=O)[O-])C2.[K+] (stereo not shown) [Compound 7, 7-Dimethylamino-3-carboxy-3,4-dihydro-2-quinolone potassium salt] | 1.4 nM | 12.3 nM | 22.2 nM | 24.3 nM | 24.6 nM | – | – | – | – | – | – | –
CCNC(=O)C1Cc2ccc(N(C)C)cc2N(C)C1=O (stereo not shown) [Compound 11, 7-Dimethylamino-3-(N-ethylcarboxamido)-3,4-dihydro-1-methyl-2-quinolone] | 4.3 nM | 8.9 nM | 101.5 nM | 133.5 nM | 142.5 nM | – | – | – | – | – | – | –
CCOC(=O)C1Cc2cc3c4c(c2OC1=O)CCCN4CCC3 (stereo not shown) [Compound 17, [2,3,6,7,9,10]-Hexahydro-10-carbethoxy-11-oxo-1H,5H,11H-[1]benzopyran[6,7,8-ij]quinolizine] | 0.6 nM | 8.8 nM | 13.0 nM | 25.9 nM | 42.5 nM | – | – | – | – | – | – | –
CCOC(=O)C1Cc2ccc(O)cc2N(C)C1=O (stereo not shown) [Compound 16, 7-Hydroxy-3-carbethoxy-3,4-dihydro-1-methyl-2-quinolone] | 1.3 nM | 4.3 nM | 5.7 nM | 6.3 nM | 6.3 nM | – | – | – | – | – | – | –

Continued, values first:

Relative Fluorescence of Indicator Compounds, Fluorescence Units, 0 secs (0 secs) | Relative Fluorescence of Indicator Compounds, Fluorescence Units, 25 secs [1] | Relative Fluorescence of Indicator Compounds, Fluorescence Units, 100 secs [2] | Relative Fluorescence of Indicator Compounds, Fluorescence Units, 200 secs [3] | Relative Fluorescence of Indicator Compounds, Fluorescence Units, 600 secs [4] | Fluorescence Units, 0 secs (0 secs, pH 7.0 or 7.5, 37° C., excitation 400 nm, emission 450 nm) | Fluorescence Units, 25 secs (25 secs, pH 7.0 or 7.5, 37° C., excitation 400 nm, emission 450 nm) | Fluorescence Units, 50 secs (50 secs, pH 7.0 or 7.5, 37° C., excitation 400 nm, emission 450 nm) | Fluorescence Units, 100 secs (100 secs, pH 7.0 or 7.5, 37° C., excitation 400 nm, emission 450 nm) | Fluorescence Units, 200 secs (200 secs, pH 7.0 or 7.5, 37° C., excitation 400 nm, emission 450 nm) | Fluorescence Units, 600 secs (600 secs, pH 7.0 or 7.5, 37° C., excitation 400 nm, emission 450 nm) | Relative Fluorescence of Indicator Compounds, Fluorescence Units, 50 secs (50 secs, pH 7.0 or 7.5, 37° C., nM of fluorescent standard equivalent) | Compound
– | – | – | – | – | < 428 photons/second | 20,142 photons/second | 27,000 photons/second | 29,000 photons/second | 30,000 photons/second | 30,000 photons/second | – | CCNC(=O)C1Cc2ccc(N(C)C)cc2NC1=O (stereo not shown) [Compound 8, 7-Dimethylamino-3-(N-ethylcarboxamido)-3,4-dihydro-2-quinolone]
< 0.12 nM | 4.0 nM | 11.0 nM | 11.25 nM | 10.8 nM | – | – | – | – | – | – | 8.75 nM | CCOC(=O)C1Cc2ccc(NC)cc2NC1=O (stereo not shown) [Compound 6, 7-Methylamino-3-carbethoxy-3,4-dihydro-2-quinolone]
1.4 nM | 81.5 nM | 101.5 nM | 101.5 nM | 101.25 nM | – | – | – | – | – | – | – | CCOC(=O)C1Cc2ccc(N(C)C)cc2NC1=O (stereo not shown) [Compound 5, 7-Dimethylamino-3-carbethoxy-3,4-dihydro-2-quinolone]
